Values after ≈ are worked out from the molar mass of the structure shown.

The assay deals with P388. The experiment in a line: Cytotoxicity against mouse P388 cells. It counts as functional, cell-based.
As to `CC(C)=CCC/C(C)=C/CC/C(C)=C/CC/C(C)=C/Cc1cc(O)c(C)cc1O`, the IC50 – broadly, the concentration that gives 50% inhibition – was 2 µg/mL (≈ 5.04 µM).

For `CC(=O)OCC(O)(C(Cc1cc(O)c(C)cc1O)OC(C)=O)C12CCC(C)(CC(/C=C(\C)CCC=C(C)C)O1)O2` (centres undefined) [SINDUROL], the IC50 is 1.2 µg/mL (≈ 2.14 µM).

`CC(=O)O[C@@H]1CO[C@@H](Oc2cc(C/C=C(\C)CC/C=C(\C)CC/C=C(\C)CCC=C(C)C)c(O)cc2C)[C@@H](O)[C@@H]1O` [NEPHTHOSIDE MANOACETATE]: the IC50 is 2 µg/mL (≈ 3.5 µM).

`CC(C)=CCC/C(C)=C/CC/C(C)=C/CC/C(C)=C/Cc1cc(O[C@@H]2OC[C@@H](O)[C@@H](O)[C@@H]2O)c(C)cc1O` [NEPHTHOSIDE] gave an IC50 of 2 µg/mL (≈ 3.78 µM).

(Values after ChEMBL document CHEMBL1158209, “Sindurol and Nephthoside: New Tetraprenyltoluquinols from the Soft Coral Sinularia dura and Nephthea sp” (J Nat Prod, 1996).)
